Measurements reported in paper PMC8533211, “Computationally Assisted Lead Optimization of Novel Potent and Selective MAO-B Inhibitors” (Biomedicines, 2021).
Entries after “also recorded” stand apart in the source; their conditions may differ. Read-outs that look alike come from different tables or passages of the source.

Assays:
human recombinant MAO-B [1] = biological target: T1, human recombinant MAO-B (Homo sapiens, UniProt P27338); assay: time-dependent inhibition of MAO-B; conditions: read-out: MAO-B enzyme inhibition in time-dependent assay
T1 sequence (P27338 1-520): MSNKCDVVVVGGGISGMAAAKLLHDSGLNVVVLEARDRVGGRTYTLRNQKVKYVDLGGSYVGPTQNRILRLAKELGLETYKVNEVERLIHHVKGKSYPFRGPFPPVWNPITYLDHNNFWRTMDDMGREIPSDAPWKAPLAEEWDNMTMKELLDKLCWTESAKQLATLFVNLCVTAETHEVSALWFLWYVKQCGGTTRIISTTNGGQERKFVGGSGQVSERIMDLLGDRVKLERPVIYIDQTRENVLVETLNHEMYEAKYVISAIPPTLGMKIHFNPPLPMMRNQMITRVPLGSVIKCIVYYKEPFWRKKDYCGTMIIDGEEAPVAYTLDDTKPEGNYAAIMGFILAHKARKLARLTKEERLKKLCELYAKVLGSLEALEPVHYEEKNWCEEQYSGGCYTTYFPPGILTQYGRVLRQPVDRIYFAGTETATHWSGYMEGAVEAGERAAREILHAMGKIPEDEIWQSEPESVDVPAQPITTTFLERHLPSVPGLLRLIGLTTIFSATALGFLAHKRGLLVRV
Experimental: The controls, without inhibitors, were also run simultaneously. Activities of the enzyme were determined as described above, and the percentage of the remaining enzyme activity was plotted against the pre-incubation time to determine time-dependent inhibition.
The control enzyme without inhibitor was also run concurrently. For validation, the MAO- B standards were run simultaneously for the time-dependent assay.

human recombinant MAO-B [2] = biological target: T1, human recombinant MAO-B; assay: MAO-B inhibition kinetics, Lineweaver–Burk (Ki, type of inhibition); format: biochemical; parameters: purchased BD Biosciences (Bedford, MA, USA); conditions: for Ki: kynuramine 1.90–500 μM, mean ± S.D. of triplicate experiments, read-out: Monoamine Oxidase B Ki
Experimental: (§1) The controls without inhibitor were also run simultaneously. Three sets of assays were performed at varying concentrations of the substrate for each experiment: one control without inhibitor and the others at two fixed concentrations of the inhibitor. The data were analyzed by double reciprocal Lineweaver–Burk plots to determine Ki (i.e., inhibition/binding affinity) values and the kinetic data, namely Km, Vmax, and Ki values, were computed by SigmaPlot 12 [9].
Modified flavonoids (1–4) c were evaluated against MAO-B at varying concentrations of kynuramine, a nonselective substrate, to investigate the nature of inhibition of the enzymes. Based on dose–concentration inhibition, three to five concentrations (below and above the concentration of IC50 values) were selected for the inhibition kinetics experiment.

human recombinant MAO-B [3] = biological target: T1, human recombinant MAO-B; assay: reversibility of binding by equilibrium dialysis of the enzyme–inhibitor complex; conditions: for reversibility of binding/inhibition of MAO-B: equilibrium dialysis; for MAO-B enzyme activity recovered after dialysis: 1.5 µM inhibitor, dialyzed overnight at 4 °C, 25 mM buffer pH 7.4
Experimental: Recovery of the catalytic activity of the enzyme was determined by assay of the enzyme activity before and after equilibrium-dialysis. […] After 20 min of incubation at 37 °C, the reaction was stopped by chilling the tubes in the ice bath. All the samples were dialyzed against potassium phosphate buffer (25 mM; pH 7.4) at 4 °C for 14–18 h (with three buffer changes). The control enzyme (without inhibitor) was also run simultaneously using the same procedure and the activity of the enzyme was determined before and after the dialysis.
MAO-B enzyme was incubated with the highest concentration of the analogs for 20 min at 37 °C to allow for binding of the inhibitor with the enzyme and formation of the enzyme–inhibitor complex. Then, the mixtures of the enzyme–inhibitor complex were dialyzed overnight at 4 °C using 25 mM KHPO4 (pH 7.4) buffer. The enzyme activities were examined before and after dialysis.

human recombinant MAO-B [4] = biological target: T1, human recombinant MAO-B; assay: kynuramine oxidation deamination assay, MAO-B inhibition (IC50); format: biochemical; parameters: purchased BD Biosciences (Bedford, MA, USA); conditions: for Selectivity Index MAO-A/B: ratio of IC50 MAO-A / MAO-B; for IC50: recombinant human MAO-B, kynuramine 50 μM, mean ± S.D. of triplicate
Experimental: A fixed single concentration of kynuramine substrate and varying concentrations of the test inhibitor were used to determine the IC50 values. […] These concentrations of kynuramine were twice the apparent KM value for substrate binding. […] Enzymatic reactions were performed in 50 μL of the assay mixture containing 0.1 M potassium phosphate buffer, pH 7.4. […] Reactions were initiated by the addition of 12.50 μL of MAO-A (to 5 μg/mL) or -B (to 10 μg/mL). The plate was incubated for 20 min at 37 °C, and the enzymatic reaction was terminated by the addition of 18.8 μL of 2N NaOH. Formation of the enzyme product, 4-hydroxyquinoline, was measured fluorometrically using a SpectraMax M5 fluorescence plate reader (Molecular Devices, Sunnyvale, CA, USA) with excitation (320 nm) and emission (380 nm) wavelengths and the Soft Max Pro program. The inhibition effects of enzyme activity were calculated as percent of product formation compared to the corresponding control (enzyme–substrate reaction) without inhibitors. Controls included the assays where the enzyme or the substrate was added after terminating the reaction to determine the interference with the fluorescence measurements. The IC50 values for MAO-A and -B inhibition were calculated from the concentration-dependent inhibition curves using XLFit® software.

human recombinant MAO-A = biological target: T2, human recombinant MAO-A (Homo sapiens, UniProt P21397); assay: kynuramine oxidation deamination assay, MAO-A inhibition (IC50); format: biochemical; conditions: kynuramine 80 μM, mean ± S.D. of triplicate
T2 construct: purchased BD Biosciences (Bedford, MA, USA)
T2 sequence (P21397 1-527): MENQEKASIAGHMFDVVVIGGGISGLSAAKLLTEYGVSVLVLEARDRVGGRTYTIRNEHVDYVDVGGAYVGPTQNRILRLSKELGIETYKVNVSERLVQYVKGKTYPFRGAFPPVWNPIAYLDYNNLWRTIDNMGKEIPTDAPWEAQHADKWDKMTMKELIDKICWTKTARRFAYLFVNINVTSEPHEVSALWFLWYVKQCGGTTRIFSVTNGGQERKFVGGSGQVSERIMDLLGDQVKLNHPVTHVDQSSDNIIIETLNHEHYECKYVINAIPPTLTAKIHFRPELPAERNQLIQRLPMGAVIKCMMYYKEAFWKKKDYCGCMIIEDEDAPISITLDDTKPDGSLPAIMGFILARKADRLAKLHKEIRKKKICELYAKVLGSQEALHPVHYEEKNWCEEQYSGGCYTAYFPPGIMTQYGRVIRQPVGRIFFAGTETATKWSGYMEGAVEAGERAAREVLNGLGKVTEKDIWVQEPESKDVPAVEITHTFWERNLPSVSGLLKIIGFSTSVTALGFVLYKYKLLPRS
Experimental: A fixed single concentration of kynuramine substrate and varying concentrations of the test inhibitor were used to determine the IC50 values. The kynuramine concentrations for MAO-A and -B were 80 μM and 50 μM, respectively. These concentrations of kynuramine were twice the apparent KM value for substrate binding. […] Enzymatic reactions were performed in 50 μL of the assay mixture containing 0.1 M potassium phosphate buffer, pH 7.4. […] Reactions were initiated by the addition of 12.50 μL of MAO-A (to 5 μg/mL) or -B (to 10 μg/mL). The plate was incubated for 20 min at 37 °C, and the enzymatic reaction was terminated by the addition of 18.8 μL of 2N NaOH. Formation of the enzyme product, 4-hydroxyquinoline, was measured fluorometrically using a SpectraMax M5 fluorescence plate reader (Molecular Devices, Sunnyvale, CA, USA) with excitation (320 nm) and emission (380 nm) wavelengths and the Soft Max Pro program. The inhibition effects of enzyme activity were calculated as percent of product formation compared to the corresponding control (enzyme–substrate reaction) without inhibitors. Controls included the assays where the enzyme or the substrate was added after terminating the reaction to determine the interference with the fluorescence measurements. The IC50 values for MAO-A and -B inhibition were calculated from the concentration-dependent inhibition curves using XLFit® software.

[5] = system: MAO-B (rat liver mitochondrial fraction); parameters: method as in PMID 18372132; conditions: cited from earlier work
[6] = system: MAO-A (rat liver mitochondrial fraction); parameters: method as in PMID 18372132; conditions: chromogenic solution; cited from earlier work
human recombinant MAO-B [7] = biological target: T1, human recombinant MAO-B; parameters: purchased BD Biosciences (Bedford, MA, USA); conditions: cited from earlier work
human recombinant MAO B = conditions: cited from earlier work; for IC50: human recombinant, kynuramine
human recombinant MAO A = conditions: human recombinant; kynuramine; cited from earlier work
Monoamine Oxidase A = biological target: T3, Monoamine Oxidase A (Homo sapiens, UniProt P21397); assay: MAO-A inhibition kinetics (Ki, type of inhibition); format: biochemical
T3 sequence (P21397 1-527): T2 sequence (P21397 1-527)
Experimental: as §1

MAO-A = system: MAO-A; parameters: method as in PMID 32869630; conditions: chemiluminescent assay, MAO-Glo kit; cited from earlier work
MAO-B = system: MAO-B; parameters: method as in PMID 32869630; conditions: chemiluminescent assay, MAO-Glo kit; cited from earlier work

| Monoamine Oxidase B Type of Inhibition (human recombinant MAO-B [2]) | Ki (human recombinant MAO-B [2]) [nM] | selectivity towards MAO-B compared with MAO-A (human recombinant MAO-B [4]) [fold] | Selectivity Index MAO-A/B (human recombinant MAO-B [4]) | IC50 (human recombinant MAO-B [4]) [nM] | IC50 (human recombinant MAO-A) [nM] | SMILES | reversibility of binding/inhibition of MAO-B (human recombinant MAO-B [3]) | IC50 (human recombinant MAO B) [nM] | IC50 (human recombinant MAO A) [nM] | further results |
| --- | --- | --- | --- | --- | --- | --- | --- | --- | --- | --- |
| mixed/irreversible | 68 ± 7.1 | 1279 | 1279.6 | 49 ± 1.4 | 62700 ± 5210 | C#CCOc1ccc(-c2cc(=O)c3c(O)cc(OC)cc3o2)cc1 [Compound 4c, 5-Hydroxy-7-methoxy-2-(4-(prop-2-yn-1-yloxy)phenyl)-4H-chromen-4-one] | irreversible MAO-B inhibitors |  |  | inhibition at 0.4 µM (human recombinant MAO-B [1]): 70 to 80% |
| mixed/partially reversible | 43 ± 3.8 | 1478 | 1478.2 | 33 ± 4.2 | 48800 ± 2010 | CCCOc1ccc(-c2cc(=O)c3c(O)cc(OC)cc3o2)cc1 [Compound 1c, 5-Hydroxy-7-methoxy-2-(4-propoxyphenyl)-4H-chromen-4-one] | partially reversible; also recorded: reversible inhibition |  |  | inhibition at 0.1 µM (human recombinant MAO-B [1]): 70 to 80%; MAO-B enzyme activity recovered after dialysis (human recombinant MAO-B [3]): 30%; reversibility of binding/inhibition of MAO-B (human recombinant MAO-B [3]; listed as O-propyl): reversible MAO-B inhibitors |
|  |  |  |  |  |  | O=C1C[C@@H](c2ccc(O)cc2)Oc2cc(O)cc(O)c21 [Naringenin] |  |  |  | IC50 ([5]; chromogenic solution): 288000 ± 18000 nM; Selectivity Index MAO-A/B [5]: 3.32; IC50 [6]: 955000 ± 129000 nM |
| mixed/reversible | 52 ± 3.1 | 1921 | 1921.3 | 16 ± 7 | 30740 ± 23 | COc1cc(O)c2c(=O)cc(-c3ccc(OC(C)C)cc3)oc2c1 [Compound 2c, 5-Hydroxy-2-(4-isopropoxyphenyl)-7-methoxy-4H-chromen-4-one] | reversible inhibition |  |  | inhibition at 0.3 µM (human recombinant MAO-B [1]): 30 to 50%; MAO-B enzyme activity recovered after dialysis (human recombinant MAO-B [3]): 66%; reversibility of binding/inhibition of MAO-B (human recombinant MAO-B [3]; listed as O-isopropyl): reversible MAO-B inhibitors |
|  |  |  |  |  |  | COc1ccc(-c2cc(=O)c3c(O)cc(OC)cc3o2)cc1 [Acacetin 7-O-methyl ether] |  | 198 ± 1 | > 100000 | Monoamine Oxidase B Type of Inhibition (human recombinant MAO-B [7]): competitive/partially reversible; Selectivity Index MAO-A/B (human recombinant MAO B): >505.05; selectivity index (SI) for MAO A/B (human recombinant MAO B): > 505 fold |
| competitive/reversible |  |  |  |  | 105 ± 1.4 | COc1ccc(-c2cc(=O)c3c(O)cc(O)cc3o2)cc1 [Acacetin] |  | 49 ± 0.7 | 121 ± 1 | Monoamine Oxidase A Type of Inhibition (Monoamine Oxidase A): competitive/reversible; Ki (Monoamine Oxidase A; mean ± S.D. of triplicate experiments): 30 ± 1.8 nM |
|  |  |  |  |  |  | O=c1cc(-c2ccc(O)c(O)c2)oc2cc(O)cc(O)c12 [Luteolin] |  |  |  | IC50 (MAO-A): 8570 ± 470 nM; IC50 (MAO-B): > 100000 nM |
|  |  |  |  |  |  | COc1cc(O)c2c(=O)cc(-c3ccc(O)c(OC)c3)oc2c1 [Vetulin] |  | 440 ± 10 | 18800 ± 290 | Selectivity Index MAO-A/B (human recombinant MAO B): 42.70 |

| SMILES | Monoamine Oxidase B Type of Inhibition (human recombinant MAO-B [2]) | Ki (human recombinant MAO-B [2]) [nM] | selectivity towards MAO-B compared with MAO-A (human recombinant MAO-B [4]) [fold] | Selectivity Index MAO-A/B (human recombinant MAO-B [4]) | IC50 (human recombinant MAO-B [4]) [nM] | IC50 (human recombinant MAO-A) [nM] | reversibility of binding/inhibition of MAO-B (human recombinant MAO-B [3]) | IC50 (human recombinant MAO B) [nM] | IC50 (human recombinant MAO A) [nM] | further results |
| --- | --- | --- | --- | --- | --- | --- | --- | --- | --- | --- |
| COc1cc(O)c2c(=O)cc(-c3ccc(OCC(C)C)cc3)oc2c1 [Compound 3c, 5-Hydroxy-2-(4-Isobutoxyphenyl)7-methoxy-4H-chromen-4-one] | mixed/irreversible | 37 ± 9.5 | > 3000 | >3225.8 | 31 ± 7 | > 100000 | irreversible MAO-B inhibitors |  |  | inhibition at 0.3 µM (human recombinant MAO-B [1]): 70 to 80%; selectivity towards MAO-B compared with MAO-A (human recombinant MAO-B [4]; listed as O-isobutyl): > 3225 fold |
